Measured values published in PubChem BioAssay (NCI).
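How tested: cells in 96-well plates exposed to compound for 48 hours at five concentrations. Here, GI50 denotes the concentration required for 50% inhibition of growth. At the TGI there is no net growth.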

Key:
Test in all cases: inhibition of tumour cell growth, NCI panel, 48 h
OVCAR-3 ovarian = system: OVCAR-3 ovarian
MOLT-4 leukemia = system: MOLT-4 leukemia
SK-MEL-28 melanoma = system: SK-MEL-28 melanoma
LOX IMVI melanoma = system: LOX IMVI melanoma
IGROV1 ovarian = system: IGROV1 ovarian
SW-620 colon = system: SW-620 colon
A498 renal = system: A498 renal
HT29 colon = system: HT29 colon
OVCAR-8 ovarian = system: OVCAR-8 ovarian
UACC-62 melanoma = system: UACC-62 melanoma
KM12 colon = system: KM12 colon
HCC-2998 colon = system: HCC-2998 colon
NCI-H460 lung = system: NCI-H460 lung
RPMI-8226 leukemia = system: RPMI-8226 leukemia
T-47D breast = system: T-47D breast
TK-10 renal = system: TK-10 renal
MCF7 breast = system: MCF7 breast
RXF 393 renal = system: RXF 393 renal
EKVX NSCLC = system: EKVX NSCLC
DU-145 prostate = system: DU-145 prostate
NCI-H23 lung = system: NCI-H23 lung
OVCAR-5 ovarian = system: OVCAR-5 ovarian
HCT-15 colon = system: HCT-15 colon
CAKI-1 renal = system: CAKI-1 renal
HS 578T breast = system: HS 578T breast
HOP-92 NSCLC = system: HOP-92 NSCLC
UACC-257 melanoma = system: UACC-257 melanoma
SK-MEL-2 melanoma = system: SK-MEL-2 melanoma
SK-OV-3 ovarian = system: SK-OV-3 ovarian
NCI-H522 lung = system: NCI-H522 lung
PC-3 prostate = system: PC-3 prostate
MDA-MB-435 = system: MDA-MB-435
SF-295 CNS = system: SF-295 CNS
SN12C renal = system: SN12C renal
SR leukemia = system: SR leukemia
M14 melanoma = system: M14 melanoma
MALME-3M melanoma = system: MALME-3M melanoma
HL-60(TB) leukemia = system: HL-60(TB) leukemia
SNB-19 CNS = system: SNB-19 CNS
HOP-62 NSCLC = system: HOP-62 NSCLC
NCI/ADR-RES ovarian = system: NCI/ADR-RES ovarian
786-0 renal = system: 786-0 renal
A549 NSCLC = system: A549 NSCLC
HCT-116 colon = system: HCT-116 colon
MDA-MB-231 breast = system: MDA-MB-231 breast
CCRF-CEM leukemia = system: CCRF-CEM leukemia
SK-MEL-5 melanoma = system: SK-MEL-5 melanoma
U251 CNS = system: U251 CNS
OVCAR-4 ovarian = system: OVCAR-4 ovarian
SF-268 CNS = system: SF-268 CNS
COLO 205 colon = system: COLO 205 colon
NCI-H226 lung = system: NCI-H226 lung
K-562 leukemia = system: K-562 leukemia
MDA-N = system: MDA-N
ACHN renal = system: ACHN renal
SF-539 CNS = system: SF-539 CNS
UO-31 renal = system: UO-31 renal
BT-549 breast = system: BT-549 breast
SNB-75 CNS = system: SNB-75 CNS

CCN(CC)Cc1ccccc1CC(=O)N1c2ccccc2C(=O)Nc2cccnc21
TGI (OVCAR-3 ovarian): > 100 µM
TGI (MOLT-4 leukemia): > 100 µM
TGI (SK-MEL-28 melanoma): > 100 µM
TGI (LOX IMVI melanoma): > 100 µM
TGI (IGROV1 ovarian): > 100 µM
TGI (SW-620 colon): > 100 µM
TGI (A498 renal): > 100 µM
TGI (HT29 colon): > 100 µM
TGI (OVCAR-8 ovarian): > 100 µM
TGI (UACC-62 melanoma): > 100 µM
TGI (KM12 colon): > 100 µM
TGI (HCC-2998 colon): > 100 µM
TGI (NCI-H460 lung): > 100 µM
TGI (RPMI-8226 leukemia): > 100 µM
TGI (T-47D breast): > 100 µM
TGI (TK-10 renal): > 100 µM
TGI (MCF7 breast): > 100 µM
TGI (RXF 393 renal): > 100 µM
TGI (EKVX NSCLC): > 100 µM
TGI (DU-145 prostate): > 100 µM
TGI (NCI-H23 lung): > 100 µM
TGI (OVCAR-5 ovarian): > 100 µM
TGI (HCT-15 colon): > 100 µM
TGI (CAKI-1 renal): > 100 µM
TGI (HS 578T breast): > 100 µM
TGI (HOP-92 NSCLC): > 100 µM
TGI (UACC-257 melanoma): > 100 µM
TGI (SK-MEL-2 melanoma): > 100 µM
TGI (SK-OV-3 ovarian): > 100 µM
TGI (NCI-H522 lung): > 100 µM
TGI (PC-3 prostate): > 100 µM
TGI (MDA-MB-435): > 100 µM
TGI (SF-295 CNS): > 100 µM
TGI (SN12C renal): > 100 µM
TGI (SR leukemia): 72.2 µM
TGI (M14 melanoma): > 100 µM
TGI (MALME-3M melanoma): > 100 µM
TGI (HL-60(TB) leukemia): > 100 µM
TGI (SNB-19 CNS): > 100 µM
TGI (HOP-62 NSCLC): > 100 µM
TGI (NCI/ADR-RES ovarian): > 100 µM
TGI (786-0 renal): > 100 µM
TGI (A549 NSCLC): > 100 µM
TGI (HCT-116 colon): > 100 µM
TGI (MDA-MB-231 breast): > 100 µM
TGI (CCRF-CEM leukemia): > 100 µM
TGI (SK-MEL-5 melanoma): > 100 µM
TGI (U251 CNS): > 100 µM
TGI (OVCAR-4 ovarian): > 100 µM
TGI (SF-268 CNS): > 100 µM
TGI (COLO 205 colon): > 100 µM
TGI (NCI-H226 lung): > 100 µM
TGI (K-562 leukemia): > 100 µM
TGI (MDA-N): > 100 µM
TGI (ACHN renal): > 100 µM
TGI (SF-539 CNS): > 100 µM

c1ccc2cc3c(cc2c1)Nc1c2ccccc2nc2cccc-3c12
TGI (SK-MEL-28 melanoma): 3.12 µM
TGI (LOX IMVI melanoma): 2.93 µM
TGI (IGROV1 ovarian): 2.75 µM
TGI (SW-620 colon): 2.91 µM
TGI (A498 renal): 6.8 µM
TGI (HT29 colon): 3.2 µM
TGI (UACC-62 melanoma): 3.57 µM
TGI (HCC-2998 colon): 3.1 µM
TGI (NCI-H460 lung): 3.26 µM
TGI (TK-10 renal): 3.28 µM
TGI (DU-145 prostate): 3.1 µM
TGI (NCI-H23 lung): 2.61 µM
TGI (OVCAR-5 ovarian): 3.22 µM
TGI (CAKI-1 renal): 3.05 µM
TGI (HOP-92 NSCLC): 2.86 µM
TGI (UACC-257 melanoma): 2.92 µM
TGI (SK-MEL-2 melanoma): 2.84 µM
TGI (SK-OV-3 ovarian): 3.01 µM
TGI (PC-3 prostate): 2.87 µM
TGI (MDA-MB-435): 3.43 µM
TGI (SF-295 CNS): 2.96 µM
TGI (SN12C renal): 3.08 µM
TGI (M14 melanoma): 3.76 µM
TGI (MALME-3M melanoma): 3.07 µM
TGI (NCI/ADR-RES ovarian): 4.69 µM
TGI (A549 NSCLC): 3.3 µM
TGI (MDA-MB-231 breast): 2.45 µM
TGI (UO-31 renal): 3 µM
TGI (SK-MEL-5 melanoma): 3.11 µM
TGI (COLO 205 colon): 3.02 µM
TGI (NCI-H226 lung): 5.03 µM
TGI (K-562 leukemia): > 100 µM
TGI (BT-549 breast): 38.4 µM
TGI (MDA-N): 2.83 µM
TGI (ACHN renal): 2.88 µM

CC1=C(/C=C/C(=O)CC(=O)/C=C/C2=C(C)CCCC2(C)C)C(C)(C)CCC1
GI50 (OVCAR-3 ovarian): 32.1 µM
TGI (OVCAR-3 ovarian): > 100 µM
GI50 (MOLT-4 leukemia): 6.51 µM
TGI (MOLT-4 leukemia): 32.6 µM
GI50 (SK-MEL-28 melanoma): 27 µM
TGI (SK-MEL-28 melanoma): > 100 µM
GI50 (LOX IMVI melanoma): 18.5 µM
TGI (LOX IMVI melanoma): 81 µM
GI50 (IGROV1 ovarian): 21 µM
TGI (IGROV1 ovarian): 88.5 µM
GI50 (SW-620 colon): 25.7 µM
TGI (SW-620 colon): > 100 µM
GI50 (A498 renal): 51.7 µM
TGI (A498 renal): > 100 µM
GI50 (HT29 colon): 28.3 µM
TGI (HT29 colon): > 100 µM
GI50 (OVCAR-8 ovarian): 30.3 µM
TGI (OVCAR-8 ovarian): > 100 µM
GI50 (UACC-62 melanoma): 19.1 µM
TGI (UACC-62 melanoma): 44.7 µM
GI50 (KM12 colon): 32.9 µM
TGI (KM12 colon): > 100 µM
GI50 (HCC-2998 colon): 35.4 µM
TGI (HCC-2998 colon): > 100 µM
GI50 (NCI-H460 lung): 18.6 µM
TGI (NCI-H460 lung): 82.1 µM
GI50 (RPMI-8226 leukemia): 14.9 µM
TGI (RPMI-8226 leukemia): 40.8 µM
GI50 (T-47D breast): 41.5 µM
TGI (T-47D breast): > 100 µM
GI50 (TK-10 renal): 28.1 µM
TGI (TK-10 renal): > 100 µM
GI50 (MCF7 breast): 22.7 µM
TGI (MCF7 breast): 72.9 µM
GI50 (RXF 393 renal): 4.38 µM
TGI (RXF 393 renal): 16 µM
GI50 (EKVX NSCLC): 15.5 µM
TGI (EKVX NSCLC): 52.8 µM
GI50 (DU-145 prostate): 14.3 µM
TGI (DU-145 prostate): > 100 µM
GI50 (NCI-H23 lung): 24.9 µM
TGI (NCI-H23 lung): > 100 µM
GI50 (OVCAR-5 ovarian): 77 µM
TGI (OVCAR-5 ovarian): > 100 µM
GI50 (SNB-75 CNS): 49.6 µM
TGI (SNB-75 CNS): > 100 µM
GI50 (HCT-15 colon): 30.8 µM
TGI (HCT-15 colon): > 100 µM
GI50 (CAKI-1 renal): 19.1 µM
TGI (CAKI-1 renal): > 100 µM
GI50 (HS 578T breast): 14.7 µM
TGI (HS 578T breast): 68.4 µM
GI50 (HOP-92 NSCLC): 28 µM
TGI (HOP-92 NSCLC): > 100 µM
GI50 (UACC-257 melanoma): 20.6 µM
TGI (UACC-257 melanoma): 63.5 µM
GI50 (SK-MEL-2 melanoma): 20.3 µM
TGI (SK-MEL-2 melanoma): 77.8 µM
GI50 (SK-OV-3 ovarian): 40.6 µM
TGI (SK-OV-3 ovarian): > 100 µM
GI50 (NCI-H522 lung): 26.5 µM
TGI (NCI-H522 lung): > 100 µM
GI50 (PC-3 prostate): 17.6 µM
TGI (PC-3 prostate): 75.2 µM
GI50 (MDA-MB-435): 38.1 µM
TGI (MDA-MB-435): > 100 µM
GI50 (SF-295 CNS): 15.6 µM
TGI (SF-295 CNS): 54.4 µM
GI50 (SN12C renal): 40.3 µM
TGI (SN12C renal): > 100 µM
GI50 (SR leukemia): 11.9 µM
TGI (SR leukemia): 40.4 µM
GI50 (M14 melanoma): 47.7 µM
TGI (M14 melanoma): > 100 µM
GI50 (MALME-3M melanoma): 38.1 µM
TGI (MALME-3M melanoma): > 100 µM
GI50 (HL-60(TB) leukemia): 5.42 µM
TGI (HL-60(TB) leukemia): 24.2 µM
GI50 (SNB-19 CNS): 33.2 µM
TGI (SNB-19 CNS): > 100 µM
GI50 (HOP-62 NSCLC): 32.3 µM
TGI (HOP-62 NSCLC): > 100 µM
GI50 (NCI/ADR-RES ovarian): 31.4 µM
TGI (NCI/ADR-RES ovarian): > 100 µM
GI50 (786-0 renal): 25.2 µM
TGI (786-0 renal): > 100 µM
GI50 (A549 NSCLC): 34.2 µM
TGI (A549 NSCLC): > 100 µM
GI50 (HCT-116 colon): 27.7 µM
TGI (HCT-116 colon): > 100 µM
GI50 (MDA-MB-231 breast): 52.3 µM
TGI (MDA-MB-231 breast): > 100 µM
GI50 (CCRF-CEM leukemia): 5.22 µM
TGI (CCRF-CEM leukemia): 31 µM
GI50 (UO-31 renal): 26.8 µM
TGI (UO-31 renal): > 100 µM
GI50 (SK-MEL-5 melanoma): 22.1 µM
TGI (SK-MEL-5 melanoma): 91.8 µM
GI50 (U251 CNS): 29.2 µM
TGI (U251 CNS): > 100 µM
GI50 (OVCAR-4 ovarian): 21.7 µM
TGI (OVCAR-4 ovarian): > 100 µM
GI50 (SF-268 CNS): 18.2 µM
TGI (SF-268 CNS): > 100 µM
GI50 (COLO 205 colon): 35.9 µM
TGI (COLO 205 colon): > 100 µM
GI50 (NCI-H226 lung): 23.3 µM
TGI (NCI-H226 lung): > 100 µM
GI50 (K-562 leukemia): 18.7 µM
TGI (K-562 leukemia): > 100 µM
GI50 (BT-549 breast): 33.9 µM
TGI (BT-549 breast): > 100 µM
GI50 (ACHN renal): 34.3 µM
TGI (ACHN renal): > 100 µM
GI50 (SF-539 CNS): 26 µM
TGI (SF-539 CNS): > 100 µM
